Earlier results as cited in patent publication US20220233487A1, “PREPARATION FOR USE IN WEIGHT MANAGEMENT COMPRISING OMEGA-3 FATTY ACID SALTS AND BASIC AMINO ACIDS” (Evonik Operations GmbH, priority 2019, published 2022).

pKa-values: pKCOOH: pKCOOH: 2.0
SMILES: N=C(N)NCCC[C@H](N)C(=O)O [L-arginine]
